Measured values: ChEMBL document CHEMBL4680205, “Multifunctional 6-fluoro-3-[3-(pyrrolidin-1-yl)propyl]-1,2-benzoxazoles targeting behavioral and psychological symptoms of dementia (BPSD)” (Eur J Med Chem, 2020)

Columns and labels:
[1] = molecular target: T1, 5-hydroxytryptamine receptor 7 (Homo sapiens, UniProt P34969); format: cell membranes, CHO-K1, Membrane
[2] = molecular target: 5-hydroxytryptamine receptor 2A (Homo sapiens, UniProt P28223); format: cell membranes, CHO-K1, Membrane
[3] = molecular target: T2, 5-hydroxytryptamine receptor 2C (Homo sapiens, UniProt P28335); assay: Antagonist activity at recombinant human 5HT2C receptor expressed in HEK293 cells assessed as inhibition of serotonin-induced inositol phosphate accumulation measured after 30 mins by HTRF assay; format: cell-based; conditions: hek293, 0.5 h
T2 sequence (P28335 whole entry): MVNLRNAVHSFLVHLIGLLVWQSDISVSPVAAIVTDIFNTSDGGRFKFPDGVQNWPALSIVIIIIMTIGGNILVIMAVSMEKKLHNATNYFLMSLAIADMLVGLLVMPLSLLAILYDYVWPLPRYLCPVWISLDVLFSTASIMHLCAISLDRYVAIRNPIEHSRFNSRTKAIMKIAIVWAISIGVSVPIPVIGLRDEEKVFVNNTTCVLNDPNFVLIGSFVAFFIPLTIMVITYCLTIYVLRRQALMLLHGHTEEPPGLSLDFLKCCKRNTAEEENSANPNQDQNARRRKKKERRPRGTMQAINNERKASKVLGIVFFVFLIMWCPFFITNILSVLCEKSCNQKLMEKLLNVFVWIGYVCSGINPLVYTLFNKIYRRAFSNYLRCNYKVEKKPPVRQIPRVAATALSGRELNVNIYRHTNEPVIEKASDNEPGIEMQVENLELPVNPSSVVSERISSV

[4] = molecular target: T1, 5-hydroxytryptamine receptor 7; conditions: CHO-K1, filed as antagonist, time 1.0 hrs
[5] = mouse, in vivo, ip, 0.5 h
[6] = molecular target: D(2) dopamine receptor (Homo sapiens) (UniProt P14416); conditions: CHO-K1, filed as antagonist, time 15-31 min
Chain of D(2) dopamine receptor (Homo sapiens) (P14416 whole entry): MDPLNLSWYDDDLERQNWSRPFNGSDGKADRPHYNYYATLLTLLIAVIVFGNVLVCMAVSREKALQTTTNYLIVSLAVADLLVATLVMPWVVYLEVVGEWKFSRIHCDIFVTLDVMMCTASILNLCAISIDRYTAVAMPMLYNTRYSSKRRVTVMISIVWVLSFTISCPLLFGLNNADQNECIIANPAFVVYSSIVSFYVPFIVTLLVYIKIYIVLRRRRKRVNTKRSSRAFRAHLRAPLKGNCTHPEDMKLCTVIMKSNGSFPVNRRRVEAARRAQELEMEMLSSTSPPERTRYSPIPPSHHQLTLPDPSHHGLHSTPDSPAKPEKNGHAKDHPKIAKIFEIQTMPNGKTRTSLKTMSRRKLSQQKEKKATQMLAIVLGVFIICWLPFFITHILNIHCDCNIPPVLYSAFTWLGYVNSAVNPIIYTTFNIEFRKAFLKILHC

[7] = molecular target: T3, Alpha-2C adrenergic receptor (Homo sapiens, UniProt P18825); assay: Antagonist activity at recombinant human adrenergic receptor alpha2c expressed in CHO-K1 cells assessed inhibition of epinephrine-induced cAMP accumulation measured after 10 mins by HTRF assay; format: cell-based; conditions: cho-k1, 10 min
T3 sequence (P18825 whole entry): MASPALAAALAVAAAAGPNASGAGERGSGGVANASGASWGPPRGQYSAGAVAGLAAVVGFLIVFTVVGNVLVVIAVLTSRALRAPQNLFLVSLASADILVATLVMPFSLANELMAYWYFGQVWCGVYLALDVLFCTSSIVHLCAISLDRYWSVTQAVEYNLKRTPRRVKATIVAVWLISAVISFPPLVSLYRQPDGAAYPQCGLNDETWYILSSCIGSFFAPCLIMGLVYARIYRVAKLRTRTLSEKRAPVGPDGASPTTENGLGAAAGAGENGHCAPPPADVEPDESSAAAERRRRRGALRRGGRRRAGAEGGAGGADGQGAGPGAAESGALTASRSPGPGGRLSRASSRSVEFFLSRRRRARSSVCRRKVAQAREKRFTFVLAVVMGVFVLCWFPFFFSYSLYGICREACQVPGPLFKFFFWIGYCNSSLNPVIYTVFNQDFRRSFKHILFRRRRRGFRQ

[8] = species: Mus musculus; assay: animal or person; conditions: CD-1, ip, 2 h, read-out: MED
[9] = Sedative activity in ip dosed Swiss albino mouse assessed as effect spontaneous locomotor activity measured during 2 to 6 mins of test; format: ADME, organism-based; conditions: in vivo, time 2-6 min
[10] = Psychoactive effect in ip dosed CD-1 mouse assessed as catalepsy effect measured after 30 to 120 mins by bar test; format: ADME, organism-based; conditions: in vivo, time 30-120 min
[11] = Sedative activity in ip dosed CD-1 mouse assessed as effect spontaneous locomotor activity measured at 5 mins interval for 120 mins; format: ADME, organism-based; conditions: in vivo, 2 h
[12] = species: Mus musculus; assay: animal or person; conditions: Swiss, ip, 0.1 h, read-out: MED
[13] = species: Mus musculus; assay: animal or person; conditions: CD-1, ip, 2 h, read-out: MED; remark: listed apart in the source

T1 sequence (P34969 whole entry): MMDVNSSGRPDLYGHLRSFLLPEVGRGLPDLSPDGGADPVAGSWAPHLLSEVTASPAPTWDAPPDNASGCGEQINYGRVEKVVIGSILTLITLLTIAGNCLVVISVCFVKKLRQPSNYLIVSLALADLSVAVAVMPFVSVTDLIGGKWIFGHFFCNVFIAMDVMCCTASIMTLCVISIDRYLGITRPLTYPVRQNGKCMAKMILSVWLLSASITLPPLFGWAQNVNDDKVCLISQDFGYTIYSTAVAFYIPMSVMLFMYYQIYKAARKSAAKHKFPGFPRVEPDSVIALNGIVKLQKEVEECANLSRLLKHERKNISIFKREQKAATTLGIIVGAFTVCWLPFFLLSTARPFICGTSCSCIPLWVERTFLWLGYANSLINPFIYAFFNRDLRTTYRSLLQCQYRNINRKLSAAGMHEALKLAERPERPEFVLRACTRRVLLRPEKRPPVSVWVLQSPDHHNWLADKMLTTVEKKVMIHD
Chain of 5-hydroxytryptamine receptor 2A (P28223 whole entry): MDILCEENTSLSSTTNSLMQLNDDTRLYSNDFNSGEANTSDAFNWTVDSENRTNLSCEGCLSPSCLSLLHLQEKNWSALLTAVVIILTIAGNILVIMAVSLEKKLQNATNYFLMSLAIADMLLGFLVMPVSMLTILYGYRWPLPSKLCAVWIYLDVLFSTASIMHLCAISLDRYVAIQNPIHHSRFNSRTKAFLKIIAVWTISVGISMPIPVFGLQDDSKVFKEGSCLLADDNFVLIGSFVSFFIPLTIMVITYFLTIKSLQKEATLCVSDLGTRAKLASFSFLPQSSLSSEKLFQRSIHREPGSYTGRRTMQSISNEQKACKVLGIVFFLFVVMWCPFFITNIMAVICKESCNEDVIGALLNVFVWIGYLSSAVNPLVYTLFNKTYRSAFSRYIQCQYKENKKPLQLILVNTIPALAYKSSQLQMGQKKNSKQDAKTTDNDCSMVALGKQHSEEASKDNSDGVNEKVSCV

O=S(=O)(N[C@H]1CCN(CCCc2noc3cc(F)ccc23)C1)c1ccc(F)c(Cl)c1
Ki [1]: 25.7 nM
Ki [2]: 6.46 nM

Cn1ccc2cc3c(cc21)CCN3C(=O)Nc1cccnc1
pKb [3]: 8.39

CC1CCN(CC[C@H]2CCCN2S(=O)(=O)c2cccc(O)c2)CC1
pKb [4]: 9.55

O=S(=O)(N[C@@H]1CCN(CCCc2noc3cc(F)ccc23)C1)c1ccc(F)c(Cl)c1
Ki [1]: 1.45 nM
Ki [2]: 5.25 nM

Cc1cccc(S(=O)(=O)N[C@@H]2CCN(CCCc3noc4cc(F)ccc34)C2)c1
Ki [1]: 1.7 nM

O=C1CCc2ccc(OCCCCN3CCN(c4cccc(Cl)c4Cl)CC3)cc2N1 [ARIPIPRAZOLE]
MED [5]: > 2.5 mg/kg

CN(C)CCCN1c2ccccc2Sc2ccc(Cl)cc21
pKb [6]: 8.84

COC(=O)[C@H]1[C@H]2C[C@H]3c4[nH]c5ccccc5c4CCN3C[C@H]2CC[C@@H]1O [RAUWOLSCINE]
pKb [7]: 8.62

OCCOCCN1CCN(C2=Nc3ccccc3Sc3ccccc32)CC1 [QUETIAPINE]
minimal effective dose [8]: 5 mg/kg
MED [9]: 10 mg/kg
MED [10]: 30 mg/kg
MED [11]: 10 mg/kg
minimal effective dose [12]: 10 mg/kg
minimal effective dose [13]: 10 mg/kg

Cc1cccc(S(=O)(=O)N[C@H]2CCN(CCCc3noc4cc(F)ccc34)C2)c1
Ki [1]: 12.9 nM
Ki [2]: 1.02 nM
